Results published in patent US20080167314A1, “Condensed Imidazole Compound And Use Thereof” (priority 2004, published 2008).

Tests used:
[1] = tested on: MMP-13 production in human normal articular chondrocytes; assay: Measurement of MMP-13 production inhibitory activity in rhIL-1β-stimulated human normal articular chondrocytes (ELISA); type: cell-based; conditions: Chondrocyte, rhIL-1β 0.1 ng/mL, 24 hr, MMP-13 in culture supernatant by ELISA
Procedure: Measurement of MMP-13 Production Inhibitory Activity
Human normal articular chondrocytes (Camblex) were grown in a chondrocyte growth medium (CGM: Camblex), and the cells were suspended in a chondrocyte differentiation medium (CDM: Camblex) and plated on a 96 well plate at 2×10^4 cells/well (150 μL/well). After culturing for 3 days under 37° C., 5% CO2 conditions, the culture medium was exchanged to 0.1% BSA added α-modification of Eagle's (α-MEM: Gibco), and the cells were cultured for 4 hr. The compound was added thereto and, after culture for 1 hr, recombinant human IL-1β (rhIL-1β: R&D systems) was added at 0.1 ng/mL. After culture for 24 hr, the culture supernatant was recovered, and the concentration of MMP-13 in the culture supernatant was measured by the ELISA method (Amersham).

[2] = tested on: TNF-α production in THP-1 cells; assay: Measurement of TNF-α production inhibitory activity in LPS-stimulated THP-1 cells (ELISA); type: cell-based; conditions: Homo sapiens, LPS 5 μg/mL, 4 hours, TNF-α in supernatant by ELISA
Procedure: Measurement of TNF-α Production Inhibitory Activity
After THP-1 cells which had been cultured in PRMI 1640 medium (manufactured by Life Technologies, Inc.) containing 1% non-activated bovine fetal serum (manufactured by Life Technologies, Inc., U.S.A.) and 10 mM HEPES (pH 7.5) was plated on a 96-well plate to 1×10^5 cells/well, 1 μL test compound dissolved in DMSO was added to there. After incubation at 37° C. for 1 hour in a CO2 incubator, LPS (Wako Pure Chemicals) was added to the final concentration 5 μg/mL. After cultured at 37° C. for 4 hours in a CO2 incubator, the supernatant was obtained by centrifugation. The concentration of TNF-α in the supernatant was measured with ELISA (R&D System, Quantikine Kit). The concentration (IC50 value) necessary for inhibiting TNF-α production by 50% was calculated by PRIMS 2.01 (Graphpad Software).

[3] = biological target: T1, active form p38 MAP kinase (Homo sapiens, UniProt Q16539); assay: Measurement of the p38 MAP kinase inhibitory activity (32P uptake into Myelin Basic Protein); type: biochemical; conditions: 260 ng active form p38 MAP kinase, 1 μg Myelin Basic Protein, 2.5 μM ATP solution, 30° C. for 60 minutes
T1 construct: made in house; host or cells: Sf-21 insect cells, baculovirus BAC-HP38 co-infected with BAC-caMKK3
Procedure: (1) Cloning of Human p38 MAP Kinase Gene and Preparation of Recombinant Baculovirus
Cloning of human p38 MAP kinase gene was performed by a PCR method using a primer set P38-U:
(3) Preparation of Active Form p38 MAP Kinase
The Sf-21 cells were seeded on 100 ml Sf-900II SFM medium (GIBCOBRL) to 1×10^6 cells/mL and cultured at 27° C. for 24 hours. After each 0.2 mL of the virusstock BAC-HP38 of recombinant Baculovirus and BAC-caMKK3 were added, the culturing was further performed for 48 hours. After the cells were separated from the culturing solution by centrifugation (3000 rpm, 10 min), the cells were washed twice with PBS. After the cells were suspended in 10 ml Lysis buffer (25 mM HEPES (pH 7.5), 1% Triton X, 130 mM NaCl, 1 mM EDTA, 1 mM DTT, 25 mM β-glycerophosphate, […], 1 mM APMSF, 1 mM Sodium orthovanadate), the cells were lysed by treating twice with a homogenizer (POLYTRON) at 20000 rpm for 2 minutes. By using Anti-FLAG M2 Affinity Gel (Eastman Chemical), active form p38 MAP kinase was purified from the supernatant obtained by centrifugation (40000 rpm, 45 minutes).
(4) Measurement of the p38 MAP Kinase Inhibitory Activity
2.5 μL of a test compound dissolved in DMSO was added to 37.5 μL reaction solution (25 mM HEPES (pH 7.5), 10 mM Magnesium Acetate) containing 260 ng active form p38 MAP kinase and 1 μg Myelin Basic Protein, which was maintained at 30° C. for 5 minutes. The reaction was initiated by adding 10 μL ATP solution (2.5 μM ATP, 0.1 μCi [g-^32P]ATP). After the reaction was performed at 30° C. for 60 minutes, the reaction was stopped by adding 50 μL 20% TCA solution. After the reaction solution was allowed to stand at 0° C. for 20 minutes, an acid insoluble fraction was transferred to GF/C filter (Packard Japan) using Cell Harvester (Packard Japan) and washed with 250 mM H3PO4. After drying at 45° C. for 60 minutes, […] Microscint 0 (Packard Japan) was added and the radioactivity was measured with a TopCount (Packard Japan). The concentration (IC50 value) necessary for inhibiting uptake of ^32P into an acid insoluble fraction by 50% was calculated with PRISM 2.01 (Graphpad Software).

T1 sequence (Q16539 whole entry): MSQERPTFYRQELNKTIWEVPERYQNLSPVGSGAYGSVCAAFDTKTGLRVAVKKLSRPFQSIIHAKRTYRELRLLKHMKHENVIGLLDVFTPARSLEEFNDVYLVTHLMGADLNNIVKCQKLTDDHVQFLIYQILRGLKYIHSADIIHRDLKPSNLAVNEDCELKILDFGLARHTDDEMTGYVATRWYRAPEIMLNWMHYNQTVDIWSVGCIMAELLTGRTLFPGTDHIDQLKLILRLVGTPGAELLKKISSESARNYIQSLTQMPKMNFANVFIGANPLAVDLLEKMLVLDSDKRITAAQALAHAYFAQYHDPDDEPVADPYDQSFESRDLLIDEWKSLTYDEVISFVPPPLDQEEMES

Row | IC50 [2] | IC50 [3] | SMILES | IC50 [1]
1 | 0.0054 µM | 0.0097 µM | Cc1cccc(-c2nc3cccnn3c2-c2ccnc(NC(=O)C3CC3)c2)c1 [Example compound 20-10, N-{4-[2-(3-methylphenyl)imidazo[1,2-b]pyridazin-3-yl]pyridin-2-yl}cyclopropanecarboxamide] | 0.025 µM
2 | 0.0025 µM | 0.0039 µM | Cc1cc(-c2nc3cccnn3c2-c2ccnc(NC(=O)c3ccc4ncsc4c3)c2)ccc1F [Example 42-35, N-{4-[2-(4-fluoro-3-methylphenyl)imidazo[1,2-b]pyridazin-3-yl]pyridin-2-yl}-1,3-benzothiazole-6-carboxamide] | 0.0062 µM
3 | 0.01 µM | 0.007 µM | Cc1cc(-c2nc3cccnn3c2-c2ccnc(NC(=O)NCCO)c2)ccc1F [Example 51-11, N-{4-[2-(4-fluoro-3-methylphenyl)imidazo[1,2-b]pyridazin-3-yl]pyridin-2-yl}-N′-(2-hydroxyethyl)urea] | 0.064 µM
4 | 0.0039 µM | 0.0025 µM | Cc1cccc(-c2nc3cccnn3c2-c2ccnc(NCC3CC3)c2)c1 [Example 5, N-(Cyclopropylmethyl)-4-[2-(3-methylphenyl)imidazo[1,2-b]pyridazin-3-yl]pyridin-2-amine] | 0.011 µM
